How the values were obtained:
[1] = mixture of the two diol species in acid, 20 hour period
[2] = Dry heat stress test (lab drying oven under air at 62° C., 14-hydroxycodeinone monitored by LC/MS); assay type: physicochemical; conditions: for growth of 14-hydroxycodeinone, dry heat: dry heat (greater than 60° C.), after 14 days; for ABUK (14-hydroxycodeinone) level, 4 days at 62° C. / ABUK (14-hydroxycodeinone) level, 7 days at 62° C. / ABUK (14-hydroxycodeinone) level, 14 days at 62° C.: dry heat, under air; for growth in the level of 14-hydroxycodeinone, dry heat at 62° C.: under air at 62° C., monitored for 14 days
Method: A 0.0225 g (0.597 sample of low ABUK oxycodone HCl (T-zero: 3.9 ppm 14-hydroxycodeinone) was placed in a standard lab drying oven under air at 62° C. and the level of 14-hydroxycodeinone was monitored by LC/MS for 14 days. No growth in the level of 14-hydroxycodeinone was observed.
A 0.0225 g (0.597 sample of low ABUK oxycodone (T zero: 3.3 ppm 14-hydroxycodeinone by LC/MS was placed in a standard lab drying oven under air at 62° C. and the level of 14-hydroxycodeinone was monitored by LC/MS for 14 days. No growth in the level of 14-hydroxycodeinone was observed
1.10 Procedure: • Separately inject the diluent as a blank. • Inject the resolution solution once. • Inject the impurity working standard three times. • Inject each sample solution under the full gradient. • Inject the diluent at the end. • Quantify the level of 14-Hydroxy Codeinone in the sample by comparing to the averaged corresponding peak specific response (SR) of the standard solution. • Report the level of 14-Hydroxy Codeinone found in the sample to the nearest 0.0001%. • Report the peak area of the diols for information only.

[3] = Hot acid stress test (aq. HCl, 65° C., 14-hydroxycodeinone monitored by LC/MS); assay type: physicochemical; conditions: for growth in 14-hydroxycodeinone in hot acid: 65° C. aq. hydrochloride acid at pH<1, after 24 hours; for ABUK (14-hydroxycodeinone) level, 2 hours in hot acid / ABUK (14-hydroxycodeinone) level, 5 hours in hot acid / ABUK (14-hydroxycodeinone) level, 24 hours in hot acid: 65° C., aq. HCl; for ABUK (14-hydroxycodeinone) level, 0 hours in hot acid (T-zero): before heating, water + 3N aq. HCl

In the case of COc1ccc2c3c1O[C@H]1C(=O)C[C@H](O)[C@@]4(O)[C@@H](C2)N(C)CC[C@]314 (single isomer, unassigned) [peak at RRT 0.91], the “degradation on exposure to acid” value [1] is reported as “degraded little”.

For COc1ccc2c3c1O[C@H]1C(=O)CC[C@@]4(O)[C@@H](C2)N(C)CC[C@]314 [Oxycodone Base from Example 9, oxycodone base], the “ABUK (14-hydroxycodeinone) level, T-zero (dry heat test)” value [2] was 3.3 ppm, the “growth of 14-hydroxycodeinone, dry heat” value [2] was “no growth” and the “ABUK (14-hydroxycodeinone) level, 4 days at 62° C.” value [2] was 3.4 ppm. For the same compound, the “ABUK (14-hydroxycodeinone) level, 7 days at 62° C.” value [2] was 3.3 ppm, the “ABUK (14-hydroxycodeinone) level, 14 days at 62° C.” value [2] was 3.6 ppm and the “growth in the level of 14-hydroxycodeinone, dry heat at 62° C.” value [2] was “No growth”. For the same compound, the “growth in 14-hydroxycodeinone in hot acid” value [3] was “no or minimal growth”, the “ABUK (14-hydroxycodeinone) level, 2 hours in hot acid” value [3] was 2.5 ppm and the “ABUK (14-hydroxycodeinone) level, 5 hours in hot acid” value [3] was 3.3 ppm. The “ABUK (14-hydroxycodeinone) level, 24 hours in hot acid” value [3] was 6.4 ppm, the “ABUK (14-hydroxycodeinone) level, 0 hours in hot acid (T-zero)” value (“ABUK (14-hydroxycodeinone) level … (T-zero)” below) [3] was 2.5 ppm and the “ABUK (14-hydroxycodeinone) level … (T-zero)” value ([3]; listed as low ABUK oxycodone base) was 2.7 ppm.

With COc1ccc2c3c1O[C@H]1C(=O)CC[C@@]4(O)[C@@H](C2)N(C)CC[C@]314.Cl [Oxycodone Hydrochloride from Example 11, oxycodone HCl] the “ABUK (14-hydroxycodeinone) level, T-zero (dry heat test)” value [2] was 3.9 ppm, the “growth of 14-hydroxycodeinone, dry heat” value [2] was “no growth” and the “ABUK (14-hydroxycodeinone) level, 4 days at 62° C.” value [2] was 3.7 ppm. The “ABUK (14-hydroxycodeinone) level, 7 days at 62° C.” value [2] was 4.0 ppm, the “ABUK (14-hydroxycodeinone) level, 14 days at 62° C.” value [2] was 3.7 ppm and the “growth in the level of 14-hydroxycodeinone, dry heat at 62° C.” value [2] was “No growth”. For the same compound, the “growth in 14-hydroxycodeinone in hot acid” value [3] was “no or minimal growth”, the “ABUK (14-hydroxycodeinone) level, 2 hours in hot acid” value [3] was 3.6 ppm and the “ABUK (14-hydroxycodeinone) level, 5 hours in hot acid” value [3] was 4.2 ppm. For the same compound, the “ABUK (14-hydroxycodeinone) level, 24 hours in hot acid” value [3] was 6.1 ppm and the “ABUK (14-hydroxycodeinone) level … (T-zero)” value [3] was 2.5 ppm.
